Laboratory results as given in patent US12115167B2 (Woolsey Pharmaceuticals, Inc., priority 2022, dated 2024).
Structures can show the parent of a compound that is named as a salt.

Assay: Stability of fasudil in 0.05M citrate buffer with and without EDTA, 60° C. for 36 days
Format: physicochemical
Settings: 60° C. 36 days, in words
Protocol: Samples were stored at 60° C. for 36 days.

compatibility with EDTA: compatible with EDTA in citrate buffer
SMILES: O=S(=O)(c1cccc2cnccc12)N1CCCNCC1 [fasudil, hexahydro-1-(5-isoquinolinesulfonyl)-1H-1,4-diazepine monohydrochloride hemihydrate]
